Assays:
[1] = Stability of cephalotaxine in acidic solution; assay type: physicochemical; settings: several days in solution at pH 1-4 at 20° C. (personal observation)
Protocol: This alkaloid is relatively insensitive to basic media. On the other hand, several authors describe a certain level of sensitivity to acids and to quaternization of the nitrogen with methyl iodide, leading to a racemization by simultaneous inversion of the 3 asymmetric centres and of the nitrogen [D. J. Abraham, R. D. Rosensten and E. L. McGandy, Tetrahedron Letters, 4085 (1969)]. However, a period of several days in solution at pH 1-4 at 20° C. leaves this structure intact (personal observation).

[2] = continuous intravenous central infusion (CIVI), patients with CML; cited from earlier work
[3] = tested on: chronic myeloid leukaemias that have become resistant to alpha-interferon; settings: patients suffering from chronic myeloid leukaemias resistant to alpha-interferon; cited from earlier work
[4] = doses twenty times lower than that for Taxol; cited from earlier work

SMILES: COC1=C[C@]23CCCN2CCc2cc4c(cc2[C@@H]3C1O)OCO4 (single isomer, unassigned; (-)) [cephalotaxine, (−)-cephalotaxine]
- structure after a period in acidic solution [1]: intact

SMILES: COC(=O)C[C@](O)(CCC(C)(C)O)C(=O)O[C@@H]1C(OC)=C[C@]23CCCN2CCc2cc4c(cc2[C@H]13)OCO4 [HA, harringtonine]
- extra-hematologic toxicity [2]: very mild

SMILES: COC(=O)C[C@](O)(CCCC(C)(C)O)C(=O)OC1C(OC)=C[C@]23CCCN2CCc2cc4c(cc2[C@H]13)OCO4 (stereo partly drawn) [HHT, cephalotaxine, 4-methyl (2R)-2-hydroxy-2-(4-hydroxy-4-methylpentyl)butanedioate (ester)]
- reinduction of full haematological remissions [3]: 70%
- extra-hematologic toxicity [2]: very mild
- daily doses at and above which active [4]: ≥ 2.5 mg/m^2 of body area per 24 hours

Reference: USRE45128E1, “Cephalotaxane derivatives and their processes of preparation and purification” (IVAX International GmbH, priority 1998, dated 2014)
